{"source": "paper PMC6801448", "about": "“The Antioxidant and Antiproliferative Activities of 1,2,3-Triazolyl-L-Ascorbic Acid Derivatives” (International Journal of Molecular Sciences, 2019)", "key": {"[1]": {"tested_on": "tested cell lines (A549, CFPAC-1, HCT-116, HeLa, HepG2, MCF-7, SW620, WI-38, HFF-1)", "assay": "MTT proliferation assay, whole tested cell panel", "assay_type": "cell-based, Human", "details": "0.01 µM to 100 µM, 72 h", "method": "The C-6 substituted 1,2,3-triazole derivatives of L-ASA within the C5-OH group ([…], 4i, 4k−4t, and 4v) and with the C4=C5 double bond (7c−7g and 7i−7q) were evaluated against seven malignant tumor cell lines: lung adenocarcinoma (A549), ductal pancreatic adenocarcinoma (CFPAC-1), colorectal carcinoma (HCT-116), cervical carcinoma (HeLa), hepatocellular carcinoma (HepG2), breast adenocarcinoma (MCF-7), colorectal adenocarcinoma, and metastatic (SW620); as well as normal cell lines: lung fibroblasts (WI-38) and foreskin fibroblasts (HFF-1) (Table 3, Table S1, Supplementary Information). L-ASA was used as a positive control, and carboxyamidotriazole, a known antiproliferative agent that inhibits tumor cell growth, invasion, and metastasis, and 5-fluorouracil (5-FU), were used as reference compounds.\nHuman tumor cell lines HeLa (cervical carcinoma), SW620 (colorectal adenocarcinoma, metastatic), A549 (lung adenocarcinoma), MCF−7 (breast adenocarcinoma), CFPAC-1 (pancreatic adenocarcinoma, metastatic), HCT-116 (colorectal carcinoma), and HepG2 (hepatocellular carcinoma), and normal cell lines HFF-1 (foreskin fibroblasts) and WI-38 (immortalized human lung fibroblast), were from the US American Type Culture Collection (ATCC, Manassas, VA, USA). Cells were cultured in a liquid nutrient medium (Dulbecco’s Modified Eagle Medium, LONZA, Basel, Switzerland) supplemented with 10% fetal bovine serum (FBS, Gibco, Grand Island, NY, USA), 2 mM L-glutamine (GIBCO, Grand Island, NY, USA), 100 μg/mL penicillin, and 100 μg/mL streptomycin (LONZA, Basel, Switzerland), in an incubator (NÜVE, Ankara, Turkey), at a humid atmosphere with 5% CO2 at 37 °C. Trypsin/EDTA Solution (Lonza, Basel, Switzerland), was used for cell passaging and cell detachment.\nAdherent cells were seeded on 96 well microtiter plates (Falcon, New York, NY, USA) at a seeding density of 5000 cells per well, added in 150 μL of cell suspension in a nutrient medium. 24 h after seeding, cells were treated with compound 4b–4g, 4i, 4k–4t, 4v, 7c–7g, and 7i–7q dilutions in the range of 0.01 μM to 100 μM. L-ascoric acid (Sigma Aldrich, Darmstadt, Germany) and Carboxyamidotriazole (Sigma Aldrich, Darmstadt, Germany) were used as control compounds. Incubation of the cells with the compounds were performed for 72 h in a 5% CO2, in humid atmosphere at 37 °C. After incubation, nutrient medium was removed and 40 μL of the MTT reagent ([…]-2,5-diphenyltetrazole bromide (Invitrogen, Carlsbad, CA, USA) was added to each well. 3 h after incubation, 160 μL of DMSO (VWR CHEMICALS, Radnor, PA, USA) were added to each well to dissolve the crystals of purple formazane. The absorbance was measured at 570 nm (TECAN SUNRISE Microtiter plate reader (Männedorf, Switzerland). The experimentally measured optical densities (OD) were converted to the PG (percentage of growth), using the formulas according to the protocol assumed by NIH (National Institute of Health). The IC50 values (concentration causing 50% cell growth inhibition) for each compound were calculated by regression analysis of the survival count curve of the concentrations of the tested compounds. The results were processed in Excel 2010 (Microsoft, Redmond, WA, USA)."}, "[2]": {"design": "method as in PMID 20925411", "details": "experimental acid dissociation constant; cited from earlier work"}}, "data": [{"smiles": "O=C1O[C@H]([C@@H](O)CO)C(O)=C1O", "note": "[L-ASA, L-ascorbic acid]", "values": [{"measurement": "antiproliferative / cytotoxic effect on the tested cell lines (in words)", "setting": "[1]", "result": "no effects on the cell growth"}, {"measurement": "pKa,2 (experimental)", "setting": "[2]", "result": 11.4}]}]}
